Test results published in patent publication US20140037642A1, “METHODS AND COMPOSITIONS RELATING TO INHIBITION OF IGF-1R” (AMGEN INC., priority 2011, published 2014).
pKd: −log10 of the molar value.

Assays:
[1] = tested on: metastatic pancreatic cancer patients; experiment: Placebo-controlled, randomized phase 2 study plus gemcitabine; assay type: in vivo, human
Protocol: The primary endpoint was six month overall survival rate.
Key inclusion criteria were histologically or cytologically documented metastatic adenocarcinoma of the pancreas, age eighteen years or older, ECOG PS 0 or 1, adequate hematologic, hepatic, renal, and coagulation function, amylase and lipase≦2.0×ULN, adequately controlled type 1 or 2 diabetes (amended during protocol to fasting blood glucose<[…] only), fasting blood glucose≦[…], HbAlc<8%, and written informed consent.
Key exclusion criteria were uncontrolled cardiac disease and prior chemotherapy or radiation in the adjuvant or metastatic setting.

[2] = tested on: metastatic pancreatic cancer patients; experiment: Overall survival in baseline circulating biomarker subgroups of the phase 2 study; assay type: in vivo, human; design: Median OS: unit not given here
Excerpt: To establish the relationship between levels of these baseline markers and overall survival, a Cox proportional hazard model was used to calculate hazard ratios (HR) using normalized log transformed marker concentrations. This analysis tests the risk of death associated with a unit increase in the normalized log baseline biomarker and this risk is expressed as a hazard ratio. Because of the small sample size, it is difficult to dissect prognostic associations from relationships that are modified by treatment with ganitumab relative to placebo, i.e., predictive. This is because the addition of treatment effect adds a variable to the analysis that compromises the power of the test masking significant predictive relationships that may exist. However even a prognostic relationship identified in this analysis is important because it informs the hypothesized relationship between circulating bioavailable ligands and the adaptation of the tumor to IGF-1R dependent progression, and in turn sensitivity to inhibitors that block IGF-1R or downstream signaling pathways.
This allows a direct test of the predictive value of using these markers in a dichotomized way to predict OS in pancreatic cancer patients that are treated with inhibitors of IGF-1R.
To represent these relationships Kaplan-Maier plots were generated that show the OS for the high and low subgroups by plotting the fraction of patients in each sub-group that survive against time.

IGF-1R = IGF-1R (Homo sapiens, UniProt P08069); details: biphasic binding; read-out: KD of high affinity binding to IGF-1R; cited from earlier work
[3] = patients with measurable disease at baseline, plus gemcitabine
[4] = plus gemcitabine, conatumumab 10 mg/kg Q2W or ganitumab 12 mg/kg Q2W
[5] = plus gemcitabine, conatumumab 10 mg/kg Q2W or ganitumab 12 mg/kg Q2W, listed as conatumumab
[6] = versus placebo plus gemcitabine

Substance: Conatumumab: conatumumab (AMG 655), amino acid sequences in FIG. 19; given with gemcitabine in the phase 2 study
- Best Overall Response: Confirmed CR - n (%) [1, 3]: 0 (0) n (%)
- Best Overall Response: Confirmed PR - n (%) [1, 3]: 1 (3) n (%)
- Best Overall Response: PD - n (%) [1, 3]: 12 (32) n (%)
- Best Overall Response: SD (Includes Unconfirmed PR) - n (%) [1, 3]: 22 (58) n (%)
- Best Overall Response: Unconfirmed PR - n (%) [1, 3]: 2 (5) n (%)
- Best Overall Response: Unknown - n (%) [1, 3]: 3 (8) n (%)
- Abdominal pain, grade 3-5 ([1]; plus gemcitabine): 7 (17) n (%)
- Anemia, grade 3-5 ([1]; plus gemcitabine): 4 (10) n (%)
- Aspartate Aminotransferase Increased, grade 3-5 ([1]; plus gemcitabine): 3 (7) n (%)
- Deep Vein Thrombosis, grade 3-5 ([1]; plus gemcitabine): 4 (10) n (%)
- Fatigue, grade 3-5 ([1]; plus gemcitabine): 5 (12) n (%)
- Hyperbilirubinemia, grade 3-5 ([1]; plus gemcitabine): 2 (5) n (%)
- Hyperglycemia, grade 3-5 ([1]; plus gemcitabine): 1 (2) n (%)
- Hypotension, grade 3-5 ([1]; plus gemcitabine): 3 (7) n (%)
- Neutropenia, grade 3-5 ([1]; plus gemcitabine): 9 (22) n (%)
- Pulmonary Embolism, grade 3-5 ([1]; plus gemcitabine): 1 (2) n (%)
- Thrombocytopenia, grade 3-5 ([1]; plus gemcitabine): 7 (17) n (%)
- rate of SD+PR ([1]; plus gemcitabine): 61%
- 6-Month OS Rate (95% CI) [1, 4]: 59% (42, 73)
- 12-Month OS Rate (95% CI) [1, 4]: 20% (9, 34)
- Median OS, Months (95% CI) [1, 4]: 7.5 (4.8, 10.0) Months
- Median PFS, Months (95% CI) [1, 4]: 4.0 (3.3, 5.0) Months
- 6-Month OS Rate (95% CI) [1, 5]: 59%
- Median PFS, Months (95% CI) [1, 5]: 4.0 Months
- Number of Patients Reporting ≧1 AE, grade 3-5 ([1]; plus gemcitabine, conatumumab N = 41, ganitumab N = 40): 36 (88) n (%)
- Stratified HR (95% CI), OS [1, 6]: 0.87 (0.53, 1.43)
- Stratified HR (95% CI), PFS [1, 6]: 0.65 (0.41, 1.05)
- Stratified HR (95% CI), PFS ([1]; versus placebo plus gemcitabine, listed as conatumumab): 0.65
- Median OS ([2]; IGF-2 High (>=median)): 214
- OS HR, treatment vs placebo ([2]; IGF-2 High (>=median)): 0.56
- Median OS ([2]; IGF-2 Low (<median)): 263
- OS HR, treatment vs placebo ([2]; IGF-2 Low (<median)): 1.08
- Median OS ([2]; IGF-BP1 High (>=median)): 178
- OS HR, treatment vs placebo ([2]; IGF-BP1 High (>=median)): 0.77
- Median OS ([2]; IGF-BP1 Low (<median)): 254
- OS HR, treatment vs placebo ([2]; IGF-BP1 Low (<median)): 0.68
- Median OS ([2]; IGF-BP2 High (>=median)): 178
- OS HR, treatment vs placebo ([2]; IGF-BP2 High (>=median)): 0.69
- Median OS ([2]; IGF-BP2 Low (<median)): 244
- OS HR, treatment vs placebo ([2]; IGF-BP2 Low (<median)): 0.91
- Median OS ([2]; IGF-BP3 High (>=median)): 244
- OS HR, treatment vs placebo ([2]; IGF-BP3 High (>=median)): 0.77
- Median OS ([2]; IGF-BP3 Low (<median)): 129
- OS HR, treatment vs placebo ([2]; IGF-BP3 Low (<median)): 0.86
- Median OS ([2]; IGF-BP4 High (>=median)): 216
- OS HR, treatment vs placebo ([2]; IGF-BP4 High (>=median)): 0.97
- Median OS ([2]; IGF-BP4 Low (<median)): 216
- OS HR, treatment vs placebo ([2]; IGF-BP4 Low (<median)): 0.86
- Median OS ([2]; Total IGF-1 High (>=median)): 231
- OS HR, treatment vs placebo ([2]; Total IGF-1 High (>=median)): 0.56
- Median OS ([2]; Total IGF-1 Low (<median)): 178
- OS HR, treatment vs placebo ([2]; Total IGF-1 Low (<median)): 0.53

Substance: IGF-2: insulin-like growth factor, ligand of IGF-1R
- pKd (IGF-1R): ~9.70
